Laboratory results taken from PubChem BioAssay (NCI).
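Grown in 96-well plates, cells were treated for 48 hours with each compound at five concentrations. Insufficient inhibition: endpoint recorded as highest concentration tested. TGI marks complete inhibition of growth.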

How the values were obtained:
Assay in all cases: growth of human tumour cells (NCI), 48 h
PC-3 prostate = system: PC-3 prostate
KM12 colon = system: KM12 colon
SF-539 CNS = system: SF-539 CNS
HCT-15 colon = system: HCT-15 colon
COLO 205 colon = system: COLO 205 colon
NCI/ADR-RES ovarian = system: NCI/ADR-RES ovarian
K-562 leukemia = system: K-562 leukemia
NCI-H226 lung = system: NCI-H226 lung
OVCAR-3 ovarian = system: OVCAR-3 ovarian
MCF7 breast = system: MCF7 breast
HCT-116 colon = system: HCT-116 colon
HOP-62 NSCLC = system: HOP-62 NSCLC
UACC-62 melanoma = system: UACC-62 melanoma
CCRF-CEM leukemia = system: CCRF-CEM leukemia
OVCAR-4 ovarian = system: OVCAR-4 ovarian
IGROV1 ovarian = system: IGROV1 ovarian
NCI-H23 lung = system: NCI-H23 lung
NCI-H522 lung = system: NCI-H522 lung
OVCAR-8 ovarian = system: OVCAR-8 ovarian
SK-OV-3 ovarian = system: SK-OV-3 ovarian
SK-MEL-28 melanoma = system: SK-MEL-28 melanoma
M14 melanoma = system: M14 melanoma
SR leukemia = system: SR leukemia
SNB-75 CNS = system: SNB-75 CNS
HS 578T breast = system: HS 578T breast
U251 CNS = system: U251 CNS
LOX IMVI melanoma = system: LOX IMVI melanoma
MDA-N = system: MDA-N
EKVX NSCLC = system: EKVX NSCLC
MDA-MB-231 breast = system: MDA-MB-231 breast
TK-10 renal = system: TK-10 renal
SF-295 CNS = system: SF-295 CNS
786-0 renal = system: 786-0 renal
SW-620 colon = system: SW-620 colon
HL-60(TB) leukemia = system: HL-60(TB) leukemia
BT-549 breast = system: BT-549 breast
DU-145 prostate = system: DU-145 prostate
RPMI-8226 leukemia = system: RPMI-8226 leukemia
SK-MEL-2 melanoma = system: SK-MEL-2 melanoma
HOP-92 NSCLC = system: HOP-92 NSCLC
SN12C renal = system: SN12C renal
UO-31 renal = system: UO-31 renal
SK-MEL-5 melanoma = system: SK-MEL-5 melanoma
T-47D breast = system: T-47D breast
SNB-19 CNS = system: SNB-19 CNS
RXF 393 renal = system: RXF 393 renal
HCC-2998 colon = system: HCC-2998 colon
A549 NSCLC = system: A549 NSCLC
MOLT-4 leukemia = system: MOLT-4 leukemia
UACC-257 melanoma = system: UACC-257 melanoma
HT29 colon = system: HT29 colon
MDA-MB-435 = system: MDA-MB-435
CAKI-1 renal = system: CAKI-1 renal
NCI-H460 lung = system: NCI-H460 lung
SF-268 CNS = system: SF-268 CNS
MALME-3M melanoma = system: MALME-3M melanoma
ACHN renal = system: ACHN renal
OVCAR-5 ovarian = system: OVCAR-5 ovarian
A498 renal = system: A498 renal

CC(=O)OCC1CCC(=C2C(=O)OC(C)(C)OC2=O)N1 (stereo not drawn)
TGI (PC-3 prostate): > 100 µM | TGI (KM12 colon): > 100 µM | TGI (SF-539 CNS): > 100 µM | TGI (HCT-15 colon): > 100 µM | TGI (COLO 205 colon): > 100 µM | TGI (NCI/ADR-RES ovarian): > 100 µM | TGI (K-562 leukemia): > 100 µM | TGI (NCI-H226 lung): > 100 µM | TGI (OVCAR-3 ovarian): > 100 µM | TGI (MCF7 breast): > 100 µM | TGI (HCT-116 colon): > 100 µM | TGI (HOP-62 NSCLC): > 100 µM | TGI (UACC-62 melanoma): > 100 µM | TGI (CCRF-CEM leukemia): > 100 µM | TGI (OVCAR-4 ovarian): > 100 µM | TGI (IGROV1 ovarian): > 100 µM | TGI (NCI-H23 lung): > 100 µM | TGI (NCI-H522 lung): > 100 µM | TGI (OVCAR-8 ovarian): > 100 µM | TGI (SK-OV-3 ovarian): > 100 µM | TGI (SK-MEL-28 melanoma): > 100 µM | TGI (M14 melanoma): > 100 µM | TGI (SR leukemia): > 100 µM | TGI (SNB-75 CNS): > 100 µM | TGI (HS 578T breast): > 100 µM | TGI (U251 CNS): > 100 µM | TGI (LOX IMVI melanoma): > 100 µM | TGI (MDA-N): > 100 µM | TGI (EKVX NSCLC): > 100 µM | TGI (MDA-MB-231 breast): > 100 µM | TGI (TK-10 renal): > 100 µM | TGI (SF-295 CNS): > 100 µM | TGI (786-0 renal): > 100 µM | TGI (SW-620 colon): > 100 µM | TGI (HL-60(TB) leukemia): > 100 µM | TGI (BT-549 breast): > 100 µM | TGI (DU-145 prostate): > 100 µM | TGI (RPMI-8226 leukemia): > 100 µM | TGI (SK-MEL-2 melanoma): > 100 µM | TGI (HOP-92 NSCLC): > 100 µM | TGI (SN12C renal): > 100 µM | TGI (UO-31 renal): > 100 µM | TGI (SK-MEL-5 melanoma): > 100 µM | TGI (T-47D breast): > 100 µM | TGI (SNB-19 CNS): > 100 µM | TGI (RXF 393 renal): > 100 µM | TGI (HCC-2998 colon): > 100 µM | TGI (A549 NSCLC): > 100 µM | TGI (MOLT-4 leukemia): > 100 µM | TGI (UACC-257 melanoma): > 100 µM | TGI (HT29 colon): > 100 µM | TGI (MDA-MB-435): > 100 µM | TGI (CAKI-1 renal): > 100 µM | TGI (NCI-H460 lung): > 100 µM | TGI (SF-268 CNS): > 100 µM | TGI (MALME-3M melanoma): > 100 µM

CN(CCNC(=O)c1[nH]nc2c1Cc1ccccc1-2)CCNC(=O)c1[nH]nc2c1Cc1ccccc1-2
TGI (PC-3 prostate): 35.7 µM | TGI (KM12 colon): 33.6 µM | TGI (HCT-15 colon): 33.2 µM | TGI (COLO 205 colon): 31.9 µM | TGI (NCI/ADR-RES ovarian): > 100 µM | TGI (K-562 leukemia): 38.1 µM | TGI (NCI-H226 lung): 35.8 µM | TGI (OVCAR-3 ovarian): 28.9 µM | TGI (MCF7 breast): 44.9 µM | TGI (HCT-116 colon): 32.8 µM | TGI (HOP-62 NSCLC): 29.4 µM | TGI (UACC-62 melanoma): 37.5 µM | TGI (CCRF-CEM leukemia): 42.9 µM | TGI (OVCAR-4 ovarian): 32.4 µM | TGI (IGROV1 ovarian): 31.8 µM | TGI (NCI-H23 lung): 33.6 µM | TGI (NCI-H522 lung): 33.4 µM | TGI (OVCAR-8 ovarian): 41.7 µM | TGI (SK-OV-3 ovarian): 31.1 µM | TGI (SK-MEL-28 melanoma): 35.2 µM | TGI (ACHN renal): 32.5 µM | TGI (M14 melanoma): 34.4 µM | TGI (SR leukemia): 42.9 µM | TGI (SNB-75 CNS): 26.1 µM | TGI (HS 578T breast): 61.9 µM | TGI (U251 CNS): 41.3 µM | TGI (LOX IMVI melanoma): 38.5 µM | TGI (MDA-N): 31.2 µM | TGI (EKVX NSCLC): 38.4 µM | TGI (MDA-MB-231 breast): 39.3 µM | TGI (TK-10 renal): 33.7 µM | TGI (SF-295 CNS): 31 µM | TGI (786-0 renal): 30.6 µM | TGI (OVCAR-5 ovarian): 33.5 µM | TGI (SW-620 colon): 49.4 µM | TGI (HL-60(TB) leukemia): 40.7 µM | TGI (BT-549 breast): 31 µM | TGI (DU-145 prostate): 32 µM | TGI (A498 renal): 36.8 µM | TGI (HOP-92 NSCLC): 34.6 µM | TGI (SN12C renal): 31.8 µM | TGI (UO-31 renal): 34.7 µM | TGI (SK-MEL-5 melanoma): 30.8 µM | TGI (T-47D breast): 44.3 µM | TGI (SNB-19 CNS): 31.4 µM | TGI (RXF 393 renal): 32.3 µM | TGI (HCC-2998 colon): 29.4 µM | TGI (A549 NSCLC): 39.8 µM | TGI (MOLT-4 leukemia): 45.2 µM | TGI (UACC-257 melanoma): 34.3 µM | TGI (HT29 colon): 32.7 µM | TGI (MDA-MB-435): 35.3 µM | TGI (CAKI-1 renal): 31.3 µM | TGI (NCI-H460 lung): 33.5 µM | TGI (SF-268 CNS): 39.6 µM | TGI (MALME-3M melanoma): 34.5 µM

CCOC1CN(C)C(=Nc2cccc3ccccc23)S1 (stereo not drawn)
TGI (PC-3 prostate): > 10 µM | TGI (KM12 colon): > 10 µM | TGI (SF-539 CNS): > 10 µM | TGI (HCT-15 colon): > 10 µM | TGI (COLO 205 colon): > 10 µM | TGI (NCI/ADR-RES ovarian): > 10 µM | TGI (K-562 leukemia): > 10 µM | TGI (NCI-H226 lung): > 10 µM | TGI (OVCAR-3 ovarian): > 10 µM | TGI (MCF7 breast): > 10 µM | TGI (HCT-116 colon): > 10 µM | TGI (HOP-62 NSCLC): > 10 µM | TGI (UACC-62 melanoma): > 10 µM | TGI (CCRF-CEM leukemia): > 10 µM | TGI (OVCAR-4 ovarian): > 10 µM | TGI (IGROV1 ovarian): > 10 µM | TGI (NCI-H23 lung): > 10 µM | TGI (NCI-H522 lung): > 10 µM | TGI (OVCAR-8 ovarian): > 10 µM | TGI (SK-OV-3 ovarian): > 10 µM | TGI (SK-MEL-28 melanoma): > 10 µM | TGI (ACHN renal): > 10 µM | TGI (M14 melanoma): > 10 µM | TGI (SR leukemia): > 10 µM | TGI (SNB-75 CNS): > 10 µM | TGI (HS 578T breast): > 10 µM | TGI (U251 CNS): > 10 µM | TGI (LOX IMVI melanoma): > 10 µM | TGI (MDA-N): > 10 µM | TGI (EKVX NSCLC): > 10 µM | TGI (MDA-MB-231 breast): > 10 µM | TGI (TK-10 renal): > 10 µM | TGI (SF-295 CNS): > 10 µM | TGI (786-0 renal): > 10 µM | TGI (OVCAR-5 ovarian): > 10 µM | TGI (SW-620 colon): > 10 µM | TGI (BT-549 breast): > 10 µM | TGI (DU-145 prostate): > 10 µM | TGI (A498 renal): > 10 µM | TGI (RPMI-8226 leukemia): > 10 µM | TGI (HOP-92 NSCLC): > 10 µM | TGI (SN12C renal): > 10 µM | TGI (UO-31 renal): > 10 µM | TGI (SK-MEL-5 melanoma): > 10 µM | TGI (T-47D breast): > 10 µM | TGI (SNB-19 CNS): > 10 µM | TGI (HCC-2998 colon): > 10 µM | TGI (A549 NSCLC): > 10 µM | TGI (MOLT-4 leukemia): > 10 µM | TGI (UACC-257 melanoma): > 10 µM | TGI (HT29 colon): > 10 µM | TGI (MDA-MB-435): > 10 µM | TGI (CAKI-1 renal): > 10 µM | TGI (NCI-H460 lung): > 10 µM | TGI (SF-268 CNS): > 10 µM | TGI (MALME-3M melanoma): > 10 µM
